Square brackets hold non-standard residues; d marks the D form. Peptide text beside a SMILES is read from it. Orn = NCCC[C@H](N)C(=O)O; βAla = NCCC(=O)O
System: MYC promoter and putative enhancer regions
Experiment: CUT&RUN qPCR, coactivator complex recruitment (PolII, BRD4, SMARCA4)
Format: cell-based, human
Source text: We next examined the molecular mechanism of MYC down-regulation by VGN50. We first utilized Cleavage under targets & release using nuclease (CUT&RUN)-sequencing to examine histone modifications that are known to be associated with enhancers in order to map putative MYC enhancer regions in PEL cells (Fig. 5a). Genome-wide CUT&RUN studies identified putative enhancer and promoter regulatory regions that are marked by H3K27Ac, H3K4me1, POLR2A (RNAPII), BRD4, and SMARCC1, a component of the SWI/SNF complex (Fig. 1b and 5a). The identified putative MYC enhancers were also in good agreement with previous ChIP Hi-C[53] and ChIP-seq data sets[54]. Specific primer pairs were then designed to amplify the respective enhancer regions and to examine regulation of coactivator complex recruitment by VGN50.
Fig. 5 A molecular mechanism of VGN50-mediated MYC-down-regulation. a Cleavage under targets & release using nuclease (CUT&RUN). CUT&RUN was performed with BCBL-1 and BC-1 with the indicated antibodies. Enrichment of active histone modifications, and occupancies of RNAPII and SWI/SNF components at the MYC genomic region are shown as peaks. One of the biological duplicate samples for the BCBL-1 cell line is presented. […] The MYC promoter, enhancer, and negative control regions used for qPCR analyses are indicated with shading. The positions of the MYC coding region, CASC11 coding region, and long non-coding RNA, PVT1, MIR1208 are shown in the panel. b VGN50 inhibits coactivator complex recruitment and c reduces H3K27Ac modification. qPCR is used to examine enrichment of DNA fragments in the presence of VGN50 or mutant peptide (24 μM). Peptide was applied 1 h prior to processing samples for CUT&RUN to replicate SLAM-seq experimental conditions. Non-specific IgG control was also included and enrichment with IgG control at each genomic region was set as 1 for b, and spiked-in luciferase plasmid DNA was used for additional internal control for c. d Formation of a larger protein complex with VGN50. Sucrose gradient sedimentation was used to monitor changes in protein complex formation in the presence of VGN50. The experiment flow chart is shown at the top of this panel. Fractions were collected from top (#1) to bottom (#23/24). Sample #24 without peptide is a smaller fraction of residual samples. Immunoblotting was performed on the odd number samples and the remaining fraction (#24 for no peptide sample) and probed with Flag-tagged SWI/SNF components (SMARCA4, SMARCC2, and SMARCB1). The position of each protein component based on molecular size is indicated. e KSHV K-Rta colocalizes with SWI/SNF components in reactivating BCBL-1 cells. TREx-BCBL-1 cells were triggered for reactivation by treatment with Dox and TPA for 28 h and stained with the indicated antibodies. Images were acquired with Keyence fluorescence microscopy. f A model for VGN50 molecular action. A model depicting the putative molecular action of VGN50 is presented. Coactivator complexes are dynamically assembled on enhancer and promoter regions via transcription factor binding. VGN50, an IDR fragment derived from an exceptionally potent viral transactivator, flexibly interacts with components of coactivators and traps them, thus reduces the available resources for cellular enhancers to activate MYC promoters.
CUT&RUN[72] was performed essentially by following the online protocol developed by Dr. Henikoff’s lab with a few modifications to fit our needs. Cells were washed with PBS and wash buffer [20 mM HEPES-KOH pH 7.5, 150 mM NaCl, 0.5 mM Spermidine (Sigma, S2626), and proteinase inhibitor (Roche)]. After removing the wash buffer, cells were captured on magnetic concanavalin A (ConA) beads (Polysciences, PA, USA) in the presence of CaCl2. […]

[1] = MYC region E1, peptide 24 μM 1 h, IgG set as 1, replicate 1
[2] = MYC region E1, peptide 24 μM 1 h, IgG set as 1, replicate 2
[3] = MYC region E1, peptide 24 μM 1 h, IgG set as 1, replicate 3
[4] = MYC region E2, peptide 24 μM 1 h, IgG set as 1, replicate 1
[5] = MYC region E2, peptide 24 μM 1 h, IgG set as 1, replicate 2
[6] = MYC region E2, peptide 24 μM 1 h, IgG set as 1, replicate 3
[7] = MYC region E3, peptide 24 μM 1 h, IgG set as 1, replicate 1
[8] = MYC region E3, peptide 24 μM 1 h, IgG set as 1, replicate 2
[9] = MYC region E3, peptide 24 μM 1 h, IgG set as 1, replicate 3
[10] = MYC region P1, peptide 24 μM 1 h, IgG set as 1, replicate 1
[11] = MYC region P1, peptide 24 μM 1 h, IgG set as 1, replicate 2
[12] = MYC region P1, peptide 24 μM 1 h, IgG set as 1, replicate 3
[13] = Myc Control region, peptide 24 μM 1 h, IgG set as 1, replicate 1
[14] = Myc Control region, peptide 24 μM 1 h, IgG set as 1, replicate 2
[15] = Myc Control region, peptide 24 μM 1 h, IgG set as 1, replicate 3

With `CC(C)C[C@H](NC(=O)CCNC(=O)[C@H](CCCNC(=N)N)NC(=O)[C@H](CCCNC(=N)N)NC(=O)[C@H](CCCNC(=N)N)NC(=O)[C@H](CCCN)NC(=O)[C@H](CCCNC(=N)N)NC(=O)[C@H](CCCNC(=N)N)NC(=O)[C@H](CCCCN)NC(=O)[C@H](CCCCN)NC(=O)[C@H](N)CCCNC(=N)N)C(=O)N[C@@H](CO)C(=O)N[C@@H](CO)C(=O)N[C@@H](C)C(=O)N[C@@H](C)C(=O)N[C@@H](C)C(=O)NCC(=O)N[C@@H](CC(C)C)C(=O)N[C@@H](Cc1ccc(O)cc1)C(=O)N[C@@H](CCC(N)=O)C(=O)N[C@@H](CC(C)C)C(=O)N[C@@H](CC(=O)O)C(=O)N[C@H](C(=O)O)[C@@H](C)O` [Mt-P] (H-[dR]KKRR[Orn]RRR[βAla]LSSAAAGLYQLDT-OH; N-terminus and C-terminus assumed) the “BRD4 enrichment, CUT&RUN qPCR” value [1] was 3.57, the “PolII enrichment, CUT&RUN qPCR” value [1] was 2.89 and the “SMARCA4 enrichment, CUT&RUN qPCR” value [1] was 1.44. For the same compound, the “BRD4 enrichment, CUT&RUN qPCR” value [2] was 3.47, the “PolII enrichment, CUT&RUN qPCR” value [2] was 2.18 and the “SMARCA4 enrichment, CUT&RUN qPCR” value [2] was 1.11. The “BRD4 enrichment, CUT&RUN qPCR” value [3] was 3.30, the “PolII enrichment, CUT&RUN qPCR” value [3] was 2.41 and the “SMARCA4 enrichment, CUT&RUN qPCR” value [3] was 1.32. The “BRD4 enrichment, CUT&RUN qPCR” value [4] was 6.92, the “PolII enrichment, CUT&RUN qPCR” value [4] was 9.68 and the “SMARCA4 enrichment, CUT&RUN qPCR” value [4] was 2.57. For the same compound, the “BRD4 enrichment, CUT&RUN qPCR” value [5] was 6.75, the “PolII enrichment, CUT&RUN qPCR” value [5] was 10.09 and the “SMARCA4 enrichment, CUT&RUN qPCR” value [5] was 2.47. For the same compound, the “BRD4 enrichment, CUT&RUN qPCR” value [6] was 7.28, the “PolII enrichment, CUT&RUN qPCR” value [6] was 9.27 and the “SMARCA4 enrichment, CUT&RUN qPCR” value [6] was 2.05. For the same compound, the “BRD4 enrichment, CUT&RUN qPCR” value [7] was 7.28, the “PolII enrichment, CUT&RUN qPCR” value [7] was 10.61 and the “SMARCA4 enrichment, CUT&RUN qPCR” value [7] was 2.01. The “BRD4 enrichment, CUT&RUN qPCR” value [8] was 6.68, the “PolII enrichment, CUT&RUN qPCR” value [8] was 9.91 and the “SMARCA4 enrichment, CUT&RUN qPCR” value [8] was 2.39. The “BRD4 enrichment, CUT&RUN qPCR” value [9] was 7.58, the “PolII enrichment, CUT&RUN qPCR” value [9] was 10.57 and the “SMARCA4 enrichment, CUT&RUN qPCR” value [9] was 1.42. The “BRD4 enrichment, CUT&RUN qPCR” value [10] was 8.00, the “PolII enrichment, CUT&RUN qPCR” value [10] was 18.06 and the “SMARCA4 enrichment, CUT&RUN qPCR” value [10] was 2.48. The “BRD4 enrichment, CUT&RUN qPCR” value [11] was 8.20, the “PolII enrichment, CUT&RUN qPCR” value [11] was 18.31 and the “SMARCA4 enrichment, CUT&RUN qPCR” value [11] was 2.51. The “BRD4 enrichment, CUT&RUN qPCR” value [12] was 7.99, the “PolII enrichment, CUT&RUN qPCR” value [12] was 17.86 and the “SMARCA4 enrichment, CUT&RUN qPCR” value [12] was 2.36. The “BRD4 enrichment, CUT&RUN qPCR” value [13] was 2.07, the “PolII enrichment, CUT&RUN qPCR” value [13] was 2.07 and the “SMARCA4 enrichment, CUT&RUN qPCR” value [13] was 1.30. For the same compound, the “BRD4 enrichment, CUT&RUN qPCR” value [14] was 1.88, the “PolII enrichment, CUT&RUN qPCR” value [14] was 1.88 and the “SMARCA4 enrichment, CUT&RUN qPCR” value [14] was 1.17. The “BRD4 enrichment, CUT&RUN qPCR” value [15] was 1.71, the “PolII enrichment, CUT&RUN qPCR” value [15] was 1.71 and the “SMARCA4 enrichment, CUT&RUN qPCR” value [15] was 1.15.

Source: PMC8639922, “KSHV transactivator-derived small peptide traps coactivators to attenuate MYC and inhibits leukemia and lymphoma cell growth” (Communications Biology, 2021)
